Data published in article PMC6014988, “Precision therapeutic targeting of human cancer cell motility” (Nature Communications, 2018).

Tests used:
[1] = Three-day MTT cell growth inhibition assay, PC3M; assay type: cell-based, human; details: human, PC3M cells; PC3M; 3 days
From the text: (§1) Assays were in replicates of N = 3, and were repeated. […]
(§2) Values are the mean±SEM of a single experiment, in
(§3) replicates of N=4, repeated at least once (also N=4).
(§4) Supplementary Figure 1b. Synthetic round #2.

PC3M = assay: Three-day MTT cell growth inhibition assay, PC3M; assay type: cell-based, human
From the text: as §1, §2, §3, §4

MKK4 = biological target: T1, MKK4 (Homo sapiens, UniProt P45985, S257E/T261E); assay: Fluorescence-based thermal shift assay, MKK4; assay type: binding
T1 construct: made in house; host or cells: KRX E. coli
T1 sequence (P45985 37-399 S257E/T261E): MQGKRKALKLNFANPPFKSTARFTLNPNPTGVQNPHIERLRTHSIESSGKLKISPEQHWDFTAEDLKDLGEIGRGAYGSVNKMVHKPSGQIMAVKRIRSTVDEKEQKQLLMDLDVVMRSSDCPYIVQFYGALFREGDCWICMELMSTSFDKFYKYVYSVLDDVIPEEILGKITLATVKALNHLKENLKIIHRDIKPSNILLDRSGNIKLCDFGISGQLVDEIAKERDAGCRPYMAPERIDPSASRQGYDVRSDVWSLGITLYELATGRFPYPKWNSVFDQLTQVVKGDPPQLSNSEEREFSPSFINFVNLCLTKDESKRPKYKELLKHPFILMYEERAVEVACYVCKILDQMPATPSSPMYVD
Protocol: (§5) Fluorescent thermal shift, isothermal titration calorimetry, and biolayer interferometry assays[46] were all performed as described by us using MEK4EE (37-399, S257E, T261E) cloned into pMCSG7 and KRX Competent E. coli cells (Promega Inc.) and above denoted full-length HSP90B and CDC37 vectors and Rosetta BL-21 and BL-21 DE-3 competent E. coli cells, respectively. DARTS assays were conducted as described, using equimolar amounts of CDC37 and HSP90β, thermolysin digestion, and silver stain visualization (ProteoSilver Silver Stain Kit, Sigma-Aldrich).
Supplementary Figure 9. […] (a) Depiction of […]
established MKK4 pathway regulating human PCa cell metastasis. […]
to MKK4, as measured by fluorescence-based thermal shift assay. Values are the mean±SD (of N=2 replicates) increase in melting temperature (ΔTm) of purified recombinant MKK4 induced by the indicated concentrations of KBU2046 or genistein. […]
in an in vitro kinase assay. The indicated concentrations of KBU2046 were added to recombinant activated MKK4, and its ability to phosphorylate kinase dead p38α MAPK (K53A) was measured by Western blot for total (p38 MAPK) and phosphorylated (pp38 MAPK) forms of […]
HSP27 in cells. PC3-M cells were pre-treated for 24 hours with 50 µM KBU2046 or genistein, as indicated, then with TGFβ, and Western blot performed. […]

200 different kinases = assay: Kinex kinase assay system; assay type: biochemical, human; details: 1 and 10 μM; 10 μM interfered with readout
From the text: There were two initial false positives (for a false positive rate of 0.4%), that were subsequently found to be negative in a dedicated follow up analysis. Specific and important negative findings include MKK4, p38 MAPK (α, β, γ and δ […]
by competing for phospho-acceptor binding.
Kinase assay system #2. The Kinex™ kinase assay system (Kinexus Proteomics Company).
This platform uses recombinant human protein kinases expressed in an insect expression system, thus allowing an avenue for post-translational modification. Also, this platform measures inhibition of ATP binding. This platform putatively measured 200 different kinases, and we […]
tested KBU2046 at 1 and 10 μM. […] There were two […]
important technical issues. First, at 10 μM KBU2046 interfered with the colorimetric-based […]
However, while considering the above factors, this screen was informative for a number of […]
function by competing for ATP binding in the active site.
Kinase assay system #3. KinaseProfiler™ and PhosphataseProfiler™ assay platforms (Millipore). This platform is radiometric-based (considered gold standard). It measures competition with respect to ATP for kinases and substrate protein for phosphatases. Most proteins were expressed via an insect-based system, and it evaluates a panel of 284 kinases and 20 phosphatases. There were two initial false positives, for a false positive rate of 0.7%, but both […]

CDC37 = biological target: T2, CDC37 (Homo sapiens, UniProt Q16543); assay: Biophysical binding assays and DARTS, isolated CDC37; details: ITC, thermal shift, biolayer interferometry, dynamic light scattering, DARTS
T2 construct: made in house; host or cells: BL-21 DE-3 E. coli
T2 sequence (Q16543 whole entry): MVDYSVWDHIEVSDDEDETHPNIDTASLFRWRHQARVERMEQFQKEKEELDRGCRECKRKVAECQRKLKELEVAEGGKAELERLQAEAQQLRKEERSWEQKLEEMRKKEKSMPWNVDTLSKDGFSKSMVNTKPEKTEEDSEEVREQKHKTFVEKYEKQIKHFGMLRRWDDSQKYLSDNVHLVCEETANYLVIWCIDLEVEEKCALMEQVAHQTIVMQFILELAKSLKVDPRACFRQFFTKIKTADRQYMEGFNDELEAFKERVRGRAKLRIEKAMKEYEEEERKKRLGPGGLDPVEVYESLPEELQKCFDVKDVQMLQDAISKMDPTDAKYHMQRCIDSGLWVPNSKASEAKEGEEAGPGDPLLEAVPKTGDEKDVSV
Protocol: as §5
Supplementary Figure 14. […] Studies used purified […]
recombinant HSP90β or CDC37. Fluorescent thermal shift 5, isothermal titration calorimetry 6, […]
evidence of KBU2046 binding to either HSP90β or CDC37 (data not shown). For DARTS assay, HSP90β or CDC37 were individually pre-incubated with KBU2046, thermolysin added, and reaction products were separated by SDS PAGE and visualized by silver stain (depicted above).
NTco – no thermolysin control. However, when the DARTS assay was conducted with both HSP90β and CDC37 present, KBU2046 protected both proteins from degradation in a concentration-dependent manner (see manuscript Fig 5A).
(also on this page, place not known: HSP90 Ntco 0 0.001 0.01 0.1 1.0 10 µM KBU2046, thermolysin NTco thermolysin CDC37)
(1 picture or pasted object on this page, not shown here)

[2] = Schiff-base formation with L-alanine, NMR; assay type: physicochemical; details: 27°C (18 h) then 37°C, total 72 hours
From the text: Response to Reviewers' comments:
We wish to thank reviewers for their time and thoughtful review. Please find below point-by-point responses to reviewer queries. Associated changes in the manuscript are underlined.
Reviewer (your email indicates #3, the review letter indicates #4):
1. While Schiff-base formation may be reversible, the reverse reaction may not occur during the life of the protein. Considering KBU2046’s binding affinity is proposed to be driven by a single H-bonding interaction with the carbonyl in question, studies should be conducted to ensure the formation of a Schiff base is not occurring.
Response. To specifically examine Schiff-base formation, we incubated KBU2046 with L-alanine at 27°C (18 h) and then 37°C for a total 72 hours, and observed no change in 1H or 13C NMR spectra of drug from the original observed spectra for KBU2046 alone. This exposure […]
product in the presence of a biologically relevant, representative primary amine. These studies were conducted by co-author Karl Scheidt, Professor of chemistry at Northwestern University.
Attached to this letter is a detailed description of the experiment.
These new experimental findings are concordant with our other findings presented in the manuscript. […]

With O=C1c2ccccc2OCC1c1ccc(F)cc1 (racemic) [KBU2046, (±)-3(4-fluorophenyl)chroman-4-one] the viability at 3 days, 50 µM [1] was 100%, the IC20 (PC3M; Homo sapiens, PC-3M, 72 h, PC3M, concentration inhibiting cell growth by 20% after 3 days) was > 50 µM and the IC50 (PC3M; Homo sapiens, PC-3M, 72 h, PC3M, concentration inhibiting cell growth by 50% after 3 days) was > 50 µM. The cell growth inhibition (PC3M; PC3-M cells, three day MTT, SAR rounds) was “no growth inhibitory”, the “binding to MKK4” value (MKK4) was “did not bind to MKK4” and the “inhibition of ATP binding” value (200 different kinases) was “completely negative”. The “binding to CDC37” value (CDC37) was “no evidence of KBU2046 binding” and the “change in 1H or 13C NMR spectra (Schiff-base formation)” value [2] was “no change”.
